Values of other authors, collected in US6719977B1, “Methods to potentiate cancer therapies” (The General Hospital Corporation, priority 1998, dated 2004).

Experiments:
[1] = infusion of relaxin; fluid-filled subcutaneous balloon
[2] = animal models
[3] = animal models; remark: listed apart in the source
[4] = animal models; remark: listed apart in the source
[5] = collagenase treatment
[6] = infusion of collagenase
fibroblast = conditions: a number of experimental settings

## relaxin
[1]
  resistance to balloon expansion (pressure-volume relationship): decreased the resistance to balloon expansion
[2]
  parenchymal fibrosis accompanying oxidative pulmonary damage induced by bleomycin: prevent
[3]
  formation of fibrotic capsules surrounding impenetrable foreign bodies: prevent
[4]
  accumulation of collagen within implanted sponges: prevent

## collagenase
[5]
  hydraulic conductance: increases hydraulic conductance
[6]
  penetration of small and large molecules into a tumor: dramatically facilitates penetration

## γ-interferon [a pleiotypic cytokine produced by helper T cells]
fibroblast
  fibroblast proliferation and associated matrix deposition: inhibit fibroblast proliferation and associated matrix deposition
